Tested on: EGF/PDGF pathway genes
Assay: qPCR array of EGF/PDGF pathway genes
Format: cell-based, human
Design: key to expression class: +: Maximum expression; −: Minimum expression; unc.: Unchanged
Settings: 10 nM, 4 h; for fold change: vs serum-free medium
Experimental: Cells were seeded at 80,000 cells per well of 24-well plates in 400 µL of complete growth medium. Cells were grown in MEM basal medium supplemented with 10% FBS and 1% antibiotic–antimycotic in a humidified incubator at 37 °C, equilibrated with 5% CO2. After 24 h of culture, the medium was removed, washed once with PBS, replaced with serum-free medium and left to culture for another 16 h. Medium was removed and replaced with corresponding treatment medium each in triplicates; 10 nM and 50 nM of Sh-EGFl-1, 10 nM and 50 nM of rhEGF were used as a positive control and serum-free medium was used as a negative control. Cells were harvested after 4 h. Medium was removed and 200 μL of Trizol reagent (Thermo Scientific, Waltham, MA, USA) was immediately added.
RNA extraction was performed according to Trizol reagent manufacturer’s protocol. An elution volume of 15 μL RNase-free water was added before the concentration and purity were determined using NanoDrop.
A total of 100 ng RNA was used initially for the cDNA synthesis reaction. The reaction was carried out according to RT^2 First Strand Kit’s protocol (Qiagen, Venlo, Netherlands). Genomic DNA was removed according to the manufacturer’s protocol prior to cDNA strand generation.
The 10 μL cDNA of human skin cells was diluted with 91 μL prior to qPCR reaction. Primer pairs of 84 genes involved in the EGF pathway, five housekeeping genes such as ribosomal protein large, P0 (RPL0), glyceraldehyde-3-phosphate-dehydrogenase (GAPDH), beta-actin (ACTB), beta-2-microglobulin (B2M) and hypoxanthine phosphoribosyltransferase 1 (HPRT1), one positive control gene for genomic DNA contamination, three reverse transcription control genes and three PCR-positive controls were included in the Qiagen PAHS-040ZA qPCR array plate (Qiagen, Venlo, Netherlands). A list of all genes analyzed in this study is available in Supplementary Materials Table S7. The mixture reaction was prepared according to the protocol and run using BioRad CFX96TM. Samples of 10 nM rhEGF and 10 nM Sh-EGFl-1 were prepared in duplicates. The following thermal profile was applied: 1 cycle at 95 °C for 10 min, 40 cycles at 95 °C for 15 s, 60 °C for 1 min, with the ramp rate from 95 °C to 60 °C was set at 1 °C every second. The data were then analyzed through Qiagen web portal. Data for serum-free medium were selected as a control group and the differences in gene expression between control and treatment groups were calculated using the 2^(−delta delta CT) method. The difference, known as fold change, was obtained from the delta delta CT values, which are the genes of interest and the average housekeeping genes, followed by the delta delta CT (delta CT (treatment group)—delta CT (control group)).

[1] = IKBKB (IKK), PLC gamma signaling
[2] = PLCG1 (PLC), PLC gamma signaling
[3] = PPP2CA (TSC2), PLC gamma signaling
[4] = RASA1 (p120GAP), MAPK signaling
[5] = RPS6KA5 (p70S6K), MAPK signaling
[6] = RPS6KA5 (p70S6K), PI3K signaling
[7] = RPS6KA5 (p70S6K), PLC gamma signaling
[8] = RPS6KB1 (p70S6K), MAPK signaling
[9] = RPS6KB1 (p70S6K), PI3K signaling
[10] = RPS6KB1 (p70S6K), PLC gamma signaling

In the case of “H-MNSDSECPLSHDGYCLHDGVCMYIEALDKYACNCVVGYIGERCQYRDLKWWELR-OH (disulfide) [rhEGF, Recombinant human EGF purchased from Thermo Scientific, reference compound]”, the “gene expression profile, EGF/PDGF pathway” value (qPCR array heat map) is reported as “opposite gene expression profile”, the expression class (AKT1, PI3K signaling) is reported as “−” and the fold change (AKT1, PI3K signaling) is reported as “(0.69)”. The expression class (AKT3, PI3K signaling) was “−”, the fold change (AKT3, PI3K signaling) was “(0.87)” and the expression class (ATF1, MAPK signaling) was “−”. The fold change (ATF1, MAPK signaling) was “(0.87)”, the expression class (ATF2, MAPK signaling) was “−” and the fold change (ATF2, MAPK signaling) was “(0.67)”. The expression class (CASP3, MAPK signaling) was “−”, the fold change (CASP3, MAPK signaling) was “(0.70)” and the expression class (CASP9, MAPK signaling) was “−”. For the same substance, the fold change (CASP9, MAPK signaling) was “(0.63)”, the expression class (CBL, MAPK signaling) was “−” and the fold change (CBL, MAPK signaling) was “(0.96)”. The expression class (CCND1, PI3K signaling) was “−”, the fold change (CCND1, PI3K signaling) was “(0.83)” and the expression class (DUSP1, MAPK signaling) was “−”. The fold change (DUSP1, MAPK signaling) was “(0.50)”, the expression class (DUSP6, MAPK signaling) was “−” and the fold change (DUSP6, MAPK signaling) was “(0.74)”. For the same substance, the expression class (E1F4E, PI3K signaling) was “+”, the fold change (E1F4E, PI3K signaling) was “(1.24)” and the expression class (ELK1, JAK-STAT signaling) was “−”. For the same substance, the fold change (ELK1, JAK-STAT signaling) was “(0.77)”, the expression class (FOS, JAK-STAT signaling) was “−” and the fold change (FOS, JAK-STAT signaling) was “(1.02)”. For the same substance, the expression class (GAB1, PI3K signaling) was “+”, the fold change (GAB1, PI3K signaling) was “(0.88)” and the expression class (GRB2, PI3K signaling) was “−”. The fold change (GRB2, PI3K signaling) was “(0.76)”, the expression class (GSK3A, PI3K signaling) was “−” and the fold change (GSK3A, PI3K signaling) was “(0.75)”. For the same substance, the expression class (GSK3B, PI3K signaling) was “−”, the fold change (GSK3B, PI3K signaling) was “(0.84)” and the expression class (HRAS, MAPK signaling) was “−”. For the same substance, the fold change (HRAS, MAPK signaling) was “(0.62)”, the expression class (IKBKB (IKK), PI3K signaling) was “−” and the fold change (IKBKB (IKK), PI3K signaling) was “(0.73)”. The expression class [1] was “−”, the fold change [1] was “(0.73)” and the expression class (IKBKB, MAPK signaling) was “−”. For the same substance, the fold change (IKBKB, MAPK signaling) was “(0.73)”, the expression class (JAK1, JAK-STAT signaling) was “−” and the fold change (JAK1, JAK-STAT signaling) was “(0.77)”. For the same substance, the expression class (JUN, JAK-STAT signaling) was “unc”, the fold change (JUN, JAK-STAT signaling) was “(0.98)” and the expression class (MAP2K1 (MEK1), MAPK signaling) was “−”. For the same substance, the fold change (MAP2K1 (MEK1), MAPK signaling) was “(0.74)”, the expression class (MAP2K4 (MKK4), MAPK signaling) was “−” and the fold change (MAP2K4 (MKK4), MAPK signaling) was “(0.51)”. The expression class (MAP2K7 (MKK7), MAPK signaling) was “+”, the fold change (MAP2K7 (MKK7), MAPK signaling) was “(0.95)” and the expression class (MAP3K2 (MEKK2), MAPK signaling) was “−”. For the same substance, the fold change (MAP3K2 (MEKK2), MAPK signaling) was “(0.82)”, the expression class (MAPK1 (ERK2), MAPK signaling) was “−” and the fold change (MAPK1 (ERK2), MAPK signaling) was “(0.76)”. The expression class (MAPK3 (ERK1), MAPK signaling) was “−”, the fold change (MAPK3 (ERK1), MAPK signaling) was “(0.79)” and the expression class (MAPK8, MAPK signaling) was “−”. For the same substance, the fold change (MAPK8, MAPK signaling) was “(0.73)”, the expression class (MAPK9, MAPK signaling) was “−” and the fold change (MAPK9, MAPK signaling) was “(0.54)”. The expression class (MAPK10, MAPK signaling) was “+”, the fold change (MAPK10, MAPK signaling) was “(1.24)” and the expression class (MKNK1, MAPK signaling) was “−”. The fold change (MKNK1, MAPK signaling) was “(0.54)”, the expression class (NFATC3, MAPK signaling) was “−” and the fold change (NFATC3, MAPK signaling) was “(0.96)”. The expression class (NFKB, PI3K signaling) was “−”, the fold change (NFKB, PI3K signaling) was “(0.90)” and the expression class (NFKB, PLC gamma signaling) was “−”. For the same substance, the fold change (NFKB, PLC gamma signaling) was “(0.90)”, the expression class (P13KCA, PI3K signaling) was “−” and the fold change (P13KCA, PI3K signaling) was “(1.08)”. For the same substance, the expression class (PDPK1 (PDK1), PI3K signaling) was “−”, the fold change (PDPK1 (PDK1), PI3K signaling) was “(0.86)” and the expression class (PIK3R1, PI3K signaling) was “−”. For the same substance, the fold change (PIK3R1, PI3K signaling) was “(0.80)”, the expression class (PIK3R2, PI3K signaling) was “−” and the fold change (PIK3R2, PI3K signaling) was “(0.75)”. The expression class [2] was “−”, the fold change [2] was “(0.89)” and the expression class [3] was “−”. The fold change [3] was “(0.69)”, the expression class (PRKCA, PLC gamma signaling) was “−” and the fold change (PRKCA, PLC gamma signaling) was “(0.78)”. For the same substance, the expression class (RAP1A, MAPK signaling) was “−”, the fold change (RAP1A, MAPK signaling) was “(0.80)” and the expression class [4] was “−”. The fold change [4] was “(0.83)”, the expression class (RHOA, Rho signaling) was “−” and the fold change (RHOA, Rho signaling) was “(0.84)”. For the same substance, the expression class [5] was “unc”, the fold change [5] was “(0.75)” and the expression class [6] was “unc”. The fold change [6] was “(0.75)”, the expression class [7] was “unc” and the fold change [7] was “(0.75)”. The expression class [8] was “−”, the fold change [8] was “(0.68)” and the expression class [9] was “−”. For the same substance, the fold change [9] was “(0.68)”, the expression class [10] was “−” and the fold change [10] was “(0.68)”. For the same substance, the expression class (SHC1, MAPK signaling) was “−”, the fold change (SHC1, MAPK signaling) was “(0.80)” and the expression class (SHC1, PI3K signaling) was “−”. For the same substance, the expression class (SRC, JAK-STAT signaling) was “+”, the fold change (SRC, JAK-STAT signaling) was “(1.16)” and the expression class (STAT3, JAK-STAT signaling) was “−”. The fold change (STAT3, JAK-STAT signaling) was “(0.89)”, the expression class (STAT5, JAK-STAT signaling) was “−” and the fold change (STAT5, JAK-STAT signaling) was “(0.89)”. For the same substance, the expression class (TP53, MAPK signaling) was “unc”, the fold change (TP53, MAPK signaling) was “(0.82)” and the expression class (TP53, PI3K signaling) was “unc”. For the same substance, the fold change (TP53, PI3K signaling) was “(0.82)”.

Source: paper PMC9605497, “Potential of Epidermal Growth Factor-like Peptide from the Sea Cucumber Stichopus horrens to Increase the Growth of Human Cells: In Silico Molecular Docking Approach” (Marine Drugs, 2022)
